According to paper PMC6225322, “Development of Kinase Inhibitors via Metal-Catalyzed C–H Arylation of 8-Alkyl-thiazolo[5,4-f]-quinazolin-9-ones Designed by Fragment-Growing Studies” (Molecules : A Journal of Synthetic Chemistry and Natural …, 2018):

These compounds were tested against CK1δ/ε (assay: CK1δ/ε in vitro kinase assay (CKS peptide)). Conditions: Table 4; ATP 15 μM, triplicate; <50% inhibition at 10 μM = IC50 >10 μM.
Format: biochemical, porcine
Method: (§1) Products of series 2a–j, 3a–c, 4a–f, 9a–i, and 10 were evaluated in five different in vitro kinase assays: CDK5/p25, CK1δ/ε (casein kinase 1), GSK-3α/β, DYRK1A (dual-specificity, tyrosine phosphorylation regulated kinase), and CLK1 [37, 38, 39].
(§2) Controls were performed with appropriate dilutions of dimethyl sulfoxide (DMSO).
CK1δ/ε (porcine brain, native) was assayed as described for CDK1, but in buffer B, and using 25 μM CKS peptide ([…]pSAYSITA), a CK1-specific substrate.
`O=c1c2c(ccc3nc(-c4cccnc4)sc32)ncn1C1CCCC1` [4e, 8-Cyclopentyl-2-(pyridin-3-yl)thiazolo[5,4-f]quinazolin-9(8H)-one] was tested, and the IC50 was over 10 µM.
For `O=c1c2c(ccc3nc(-c4cccnc4)sc32)ncn1C1CC1` [4c, 8-Cyclopropyl-2-(pyridin-3-yl)thiazolo[5,4-f]quinazolin-9(8H)-one], the IC50 was 6 µM.
`COc1ncccc1-c1nc2ccc3ncn(C4CC4)c(=O)c3c2s1` [compound 10] showed an IC50 of over 10 µM.
`O=c1c2c(ccc3nc(-c4cccnc4)sc32)ncn1C1CCCCC1` [4f, 8-Cyclohexyl-2-(pyridin-3-yl)thiazolo[5,4-f]quinazolin-9(8H)-one] was tested, and the IC50 was over 10 µM.
`CC(C)n1cnc2ccc3nc(-c4cccnc4)sc3c2c1=O` [4b, 8-Isopropyl-2-(pyridin-3-yl)thiazolo[5,4-f]quinazolin-9(8H)-one] was tested, and the IC50 was over 10 µM.
With `Cn1cnc2ccc3nc(-c4cccnc4)sc3c2c1=O` [4a, 8-Methyl-2-(pyridin-3-yl)thiazolo[5,4-f]quinazolin-9(8H)-one] the IC50 was over 10 µM.
`O=c1c2c(ccc3nc(-c4cnccn4)sc32)ncn1Cc1ccccc1` [3b] gave an IC50 of over 10 µM.
Work on `O=c1c2c(ccc3nc(-c4cccnc4)sc32)ncn1Cc1ccccc1` [3a] yielded an IC50 of over 10 µM.
In the case of `O=c1c2c(ccc3nc(-c4cccnc4)sc32)ncn1C1CCC1` [4d, 8-Cyclobutyl-2-(pyridin-3-yl)thiazolo[5,4-f]quinazolin-9(8H)-one], the IC50 is reported as over 10 µM.
In the case of `COc1ccc2c(c1)[nH]c1c(C)nccc12` [Harmine, reference compound], the IC50 is reported as 1.5 µM.

These compounds were tested against T1, CDK5/p25 (Homo sapiens, UniProt Q00535) (assay: CDK5/p25 in vitro kinase assay (33P-ATP, histone H1)). Conditions: not given.
T1 construct: made in house
T1 sequence (Q00535 whole entry): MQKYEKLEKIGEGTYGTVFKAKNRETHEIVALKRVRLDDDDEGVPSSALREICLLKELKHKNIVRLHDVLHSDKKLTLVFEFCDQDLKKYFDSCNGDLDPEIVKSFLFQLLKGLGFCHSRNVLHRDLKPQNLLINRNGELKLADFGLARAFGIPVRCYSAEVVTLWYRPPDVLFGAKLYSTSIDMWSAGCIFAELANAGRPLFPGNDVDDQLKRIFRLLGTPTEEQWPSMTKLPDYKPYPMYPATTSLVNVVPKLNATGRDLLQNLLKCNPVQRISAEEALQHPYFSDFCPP
T1 sequence (Q15078 99-307 partner limits assumed): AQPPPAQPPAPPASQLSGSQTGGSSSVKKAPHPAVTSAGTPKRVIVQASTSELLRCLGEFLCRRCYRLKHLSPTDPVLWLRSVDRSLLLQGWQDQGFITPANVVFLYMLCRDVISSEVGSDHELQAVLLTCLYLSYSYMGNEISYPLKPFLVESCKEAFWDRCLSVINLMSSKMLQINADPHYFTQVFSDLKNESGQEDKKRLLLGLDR
Format: biochemical
For `COc1ncccc1-c1nc2ccc3ncn(C4CC4)c(=O)c3c2s1` [compound 10], the IC50 was over 10 µM.
In the case of `O=c1c2c(ccc3nc(-c4cnccn4)sc32)ncn1Cc1ccccc1` [3b], the IC50 is reported as over 10 µM.
Compound `O=c1c2c(ccc3nc(-c4cccnc4)sc32)ncn1Cc1ccccc1` [3a] has an IC50 of over 10 µM.

What follows are compounds tested against GSK-3α/β (assay: GSK-3α/β in vitro kinase assay (GS-1 peptide)). Conditions: Table 4; ATP 15 μM, triplicate; <50% inhibition at 10 μM = IC50 >10 μM.
Format: biochemical, porcine
Method: as §1, §2
GSK-3α/β (porcine brain, native) was assayed, in buffer A, with 0.5 mg BSA/mL + 1 mM DTT, using GS-1 ([…]pEDEEE) (pS stands for phosphorylated serine), a GSK-3 specific substrate, in the presence of 15 μmol/L [γ-^33P] ATP (3000 Ci/mmol; 10 mCi/mL) in a final volume of 30 μL. After 30 min incubation at 30 °C, the reaction was stopped by harvesting onto P81 phosphocellulose […] (Whatman, Dutscher SAS, Brumath, France) using a FilterMate harvester (PerkinElmer, Courtaboeuf, France), and were washed in 1% phosphoric acid. Scintillation fluid was added, and the radioactivity measured in a Packard counter.
With `O=c1c2c(ccc3nc(-c4cccnc4)sc32)ncn1C1CCCC1` [4e, 8-Cyclopentyl-2-(pyridin-3-yl)thiazolo[5,4-f]quinazolin-9(8H)-one] the IC50 was over 10 µM.
With `O=c1c2c(ccc3nc(-c4cccnc4)sc32)ncn1C1CC1` [4c, 8-Cyclopropyl-2-(pyridin-3-yl)thiazolo[5,4-f]quinazolin-9(8H)-one] the IC50 was 0.068 µM.
Work on `COc1ncccc1-c1nc2ccc3ncn(C4CC4)c(=O)c3c2s1` [compound 10] yielded an IC50 of at least 10 µM.
With `O=c1c2c(ccc3nc(-c4cccnc4)sc32)ncn1C1CCCCC1` [4f, 8-Cyclohexyl-2-(pyridin-3-yl)thiazolo[5,4-f]quinazolin-9(8H)-one] the IC50 was over 10 µM.
`CC(C)n1cnc2ccc3nc(-c4cccnc4)sc3c2c1=O` [4b, 8-Isopropyl-2-(pyridin-3-yl)thiazolo[5,4-f]quinazolin-9(8H)-one] was tested, and the IC50 was over 10 µM.
With `Cn1cnc2ccc3nc(-c4cccnc4)sc3c2c1=O` [4a, 8-Methyl-2-(pyridin-3-yl)thiazolo[5,4-f]quinazolin-9(8H)-one] the IC50 was over 10 µM.
Work on `O=c1c2c(ccc3nc(-c4cnccn4)sc32)ncn1Cc1ccccc1` [3b] yielded an IC50 of 6 µM.
Work on `O=c1c2c(ccc3nc(-c4cccnc4)sc32)ncn1Cc1ccccc1` [3a] yielded an IC50 of 3.7 µM.
Compound `O=c1c2c(ccc3nc(-c4cccnc4)sc32)ncn1C1CCC1` [4d, 8-Cyclobutyl-2-(pyridin-3-yl)thiazolo[5,4-f]quinazolin-9(8H)-one] has an IC50 of over 10 µM.
`COc1ccc2c(c1)[nH]c1c(C)nccc12` [Harmine, reference compound] showed an IC50 of over 10 µM.

The compounds below were run against CLK1 (Homo sapiens, UniProt P49759) (assay: CLK1 in vitro kinase assay (RS peptide)). Conditions: not given.
CLK1, sequence (P49759 whole entry): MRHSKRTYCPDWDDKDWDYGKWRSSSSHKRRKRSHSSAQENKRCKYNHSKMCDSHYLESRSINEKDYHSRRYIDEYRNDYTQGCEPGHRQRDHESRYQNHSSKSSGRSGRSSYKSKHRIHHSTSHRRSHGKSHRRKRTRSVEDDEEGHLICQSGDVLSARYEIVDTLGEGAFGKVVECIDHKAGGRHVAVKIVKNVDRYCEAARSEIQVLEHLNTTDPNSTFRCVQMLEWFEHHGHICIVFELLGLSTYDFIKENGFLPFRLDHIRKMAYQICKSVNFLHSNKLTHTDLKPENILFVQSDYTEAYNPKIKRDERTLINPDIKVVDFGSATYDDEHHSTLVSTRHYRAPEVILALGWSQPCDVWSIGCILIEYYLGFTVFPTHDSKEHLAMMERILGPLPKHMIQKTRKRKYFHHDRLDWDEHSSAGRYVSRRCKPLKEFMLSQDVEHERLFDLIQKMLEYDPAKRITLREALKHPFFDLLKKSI
Format: biochemical
Work on `O=c1c2c(ccc3nc(-c4cccnc4)sc32)ncn1C1CCCC1` [4e, 8-Cyclopentyl-2-(pyridin-3-yl)thiazolo[5,4-f]quinazolin-9(8H)-one] yielded an IC50 of over 10 µM.
With `O=c1c2c(ccc3nc(-c4cccnc4)sc32)ncn1C1CC1` [4c, 8-Cyclopropyl-2-(pyridin-3-yl)thiazolo[5,4-f]quinazolin-9(8H)-one] the IC50 was 0.018 µM.
With `COc1ncccc1-c1nc2ccc3ncn(C4CC4)c(=O)c3c2s1` [compound 10] the IC50 was over 10 µM.
With `O=c1c2c(ccc3nc(-c4cccnc4)sc32)ncn1C1CCCCC1` [4f, 8-Cyclohexyl-2-(pyridin-3-yl)thiazolo[5,4-f]quinazolin-9(8H)-one] the IC50 was over 10 µM.
`CC(C)n1cnc2ccc3nc(-c4cccnc4)sc3c2c1=O` [4b, 8-Isopropyl-2-(pyridin-3-yl)thiazolo[5,4-f]quinazolin-9(8H)-one] was tested, and the IC50 was over 10 µM.
Work on `Cn1cnc2ccc3nc(-c4cccnc4)sc3c2c1=O` [4a, 8-Methyl-2-(pyridin-3-yl)thiazolo[5,4-f]quinazolin-9(8H)-one] yielded an IC50 of over 10 µM.
With `O=c1c2c(ccc3nc(-c4cnccn4)sc32)ncn1Cc1ccccc1` [3b] the IC50 was 3.33 µM.
`O=c1c2c(ccc3nc(-c4cccnc4)sc32)ncn1Cc1ccccc1` [3a] gave an IC50 of 2 µM.
With `O=c1c2c(ccc3nc(-c4cccnc4)sc32)ncn1C1CCC1` [4d, 8-Cyclobutyl-2-(pyridin-3-yl)thiazolo[5,4-f]quinazolin-9(8H)-one] the IC50 was over 10 µM.

The compounds below were run against DYRK1A (Homo sapiens, UniProt Q13627) (assay: DYRK1A in vitro kinase assay (Woodtide)). Conditions: not given.
Format: biochemical
Method: as §1, §2
For `O=c1c2c(ccc3nc(-c4cccnc4)sc32)ncn1C1CCCC1` [4e, 8-Cyclopentyl-2-(pyridin-3-yl)thiazolo[5,4-f]quinazolin-9(8H)-one], the IC50 was over 10 µM.
Work on `O=c1c2c(ccc3nc(-c4cccnc4)sc32)ncn1C1CC1` [4c, 8-Cyclopropyl-2-(pyridin-3-yl)thiazolo[5,4-f]quinazolin-9(8H)-one] yielded an IC50 of 0.011 µM.
For `COc1ncccc1-c1nc2ccc3ncn(C4CC4)c(=O)c3c2s1` [compound 10], the IC50 was over 10 µM.
Work on `O=c1c2c(ccc3nc(-c4cccnc4)sc32)ncn1C1CCCCC1` [4f, 8-Cyclohexyl-2-(pyridin-3-yl)thiazolo[5,4-f]quinazolin-9(8H)-one] yielded an IC50 of over 10 µM.
In the case of `CC(C)n1cnc2ccc3nc(-c4cccnc4)sc3c2c1=O` [4b, 8-Isopropyl-2-(pyridin-3-yl)thiazolo[5,4-f]quinazolin-9(8H)-one], the IC50 is reported as over 10 µM.
Work on `Cn1cnc2ccc3nc(-c4cccnc4)sc3c2c1=O` [4a, 8-Methyl-2-(pyridin-3-yl)thiazolo[5,4-f]quinazolin-9(8H)-one] yielded an IC50 of over 10 µM.
With `O=c1c2c(ccc3nc(-c4cnccn4)sc32)ncn1Cc1ccccc1` [3b] the IC50 was 0.133 µM.
Work on `O=c1c2c(ccc3nc(-c4cccnc4)sc32)ncn1Cc1ccccc1` [3a] yielded an IC50 of 0.012 µM.
With `O=c1c2c(ccc3nc(-c4cccnc4)sc32)ncn1C1CCC1` [4d, 8-Cyclobutyl-2-(pyridin-3-yl)thiazolo[5,4-f]quinazolin-9(8H)-one] the IC50 was over 10 µM.

Same assay, conditions: SAR discussion
`COc1ncccc1-c1nc2ccc3ncn(C4CC4)c(=O)c3c2s1` [compound 10] was tested, and the “DYRK inhibitory activity (in words)” value was “inactive”.
